Data as given in patent US3959077A (priority 1972, dated 1976).
Like-named read-outs stand apart in the source and are kept apart here.

Key:
[1] = system: binding enzyme exhibiting Na-K-ATPase activity; assay: enzymatic isotope displacement assay: displacement of H^3 ouabain from the binding enzyme; design: species or system guinea pig; settings: 0, 2.5, 5, 10, 20 Ng (or ug of digitalis leaf) per 50 μl; FIG. 4
Description: The serum extract and aqueous buffered mixtures having known concentrations of cardiac glycosides (hereinafter referred to as standard samples) are incubated with aqueous buffered mixtures containing the novel binding enzyme of the present invention in the presence of radioactive isotope cardiac glycoside, magnesium and sodium ions, ATP a buffering agent and optionally, but preferably, a heavy metal chelating agent. It is preferably that potassium be eliminated from the reagents to optimize the sensitivity of the assay. Ten microliters of the extract are sufficient for the incubation, although smaller and larger amounts may be employed. The binding enzyme is prepared by reacting a binding enzyme precursor or binding material (described below) with a high energy phosphate compound such as adenosine triphosphate (ATP), adenosine diphosphate (ADP), guanosine triphosphate (GTP), guanosine diphosphate (GDP) and the like. The reaction is preferably conducted in the presence of magnesium and/or sodium, preferably both. The reaction is conveniently carried out in the incubation or displacement step reaction mixture. About 4 to 100 micromoles of the high energy phosphate compound are reacted with each amount of the binding enzyme precursor prepared from one gram of animal tissue; although lesser or greater amounts of a high energy phosphate compound may be used. […]
In the above assay, the binding enzyme binds tritiated ouabain in the presence of Na and Mg. […] After centrifugation, the unbound H^3 ouabain in the supernatant fraction is counted by liquid scintillation and compared with known counts for standard concentrations of digoxin. An increase in supernatant radioactivity indicates uptake of digoxin or other cardiac glycoside at the expense of tritiated ouabain. […]
A solution of 250,000 Ng (nanograms) of digoxin per ml of methanol is gravimetrically prepared. […] 50ul of each supernatant is then counted by liquid scintillation. […]

[2] = cited from earlier work
clinical = type: in vivo, human
Description: A person was admitted to this center 3 hours after having ingested 100 tablets of 0.1mg of digitoxin. They had vomited once. Physical examination was unrevealing. […] The P-R interval was 0.24 seconds. Serum was obtained for assay, urine collection was begun, and vigorous gastric lavage was instituted.
Apparent serum digitoxin on admission was 51.0 Ng/ml, a value close to that of another patient whose atrial fibrillation was under satisfactory control on digitoxin 0.1mg/day. […] The results from both the serum and gastric material were in the hands of ward personnel within 3 hours.
On the basis of this assay information, especially the findings from the gastric material, it was decided by those caring for the patient that they might just have passed the stage where serum levels were highest. Since they were not severe, and since only mild AV block was present, it was felt that they might do well subsequently without further intervention. They were carefully watched, and in fact recovered without further therapy. […]. Four control urine specimens and six specimens at gastric contents from persons not receiving any digitalis gave negative results.

[3] = cited from earlier work; remark: listed apart in the source
[4] = serum cardiac glycoside levels in patients, measured with the present assay; type: in vivo, human; settings: 21 patients with arrhythmias on digoxin therapy; serum drawn at least 6 hours after last dose
Description: Digoxin is extracted from patient serum or from plasma as follows: 5ml of serum or plasma is shaken for 30 seconds with 30ml of Chloroform in a 40ml glass-stoppered conical centrifuge tube, and centrifuged for 2 minutes at 1800 rpm (750 × g at tip). The milky top layer and fatty plug are removed with a teflon-tipped aspirator. The bottom chloroform layer is decanted into another 40ml centrifuge tube and evaporated to dryness in 3 to 5 minutes on a Buchler Evapomixer at 60°C. under vacuum. The digoxin thus extracted is rinsed down to the bottom of the tube with 1ml of ethyl ether and evaporated to dryness in a 50°C. water bath under a stream of filtered air.
. The sample is mixed on a Vari-whirl vortex mixer for 20 seconds at full speed and centrifuged for 3 minutes at 1800 rpm. The top toluene layer is removed with a narrow, drawn-out pasteur pipet, and discarded. Duplicate 50μl tris aliquots of the bottom tris layer are then assayed in the same manner as for the standards described in Example 3. No quench correction is required. Only raw 1 or 2 minute counts need be used and the counts of duplicate aliquots are averaged. The amount of digoxin found in each aliquot is obtained by comparison with that day's standard curve.
Serum digoxin levels were measured in 83 nontoxic patients on the medical wards of the Los Angeles County-University of Southern California Medical Center. […]

antibody = settings: cited from earlier work

Row | SMILES | displaced H^3 ouabain from the enzyme (potency) [1] | reported therapeutic serum levels relative to those of digoxin [2] [times] | cardiac glycosides in gastric lavage material, equivalent of digitoxin (clinical; aliquot of 4 liters of lavage material) [µg/mL] | concentration at 3 h (clinical; human, in vivo, po, 3 hours after ingestion of 100 tablets of 0.1 mg, read-out: apparent serum digitoxin on admission) [ng/mL] | concentration at 24 h (clinical; human, in vivo, po, first subsequent day, read-out: subsequent daily serum digitoxin level) [ng/mL] | concentration at 48 h (clinical; human, in vivo, po, second subsequent day, read-out: subsequent daily serum digitoxin level) [ng/mL] | concentration at 24 h (clinical; human, in vivo, po, spot urine, first of the two days after admission, read-out: apparent digitoxin concentration in urine) [ng/mL] | concentration at 48 h (clinical; human, in vivo, po, spot urine, second of the two days after admission, read-out: apparent digitoxin concentration in urine) [ng/mL] | concentration at 72 h (clinical; human, in vivo, po, third subsequent day, read-out: subsequent daily serum digitoxin level) [ng/mL] | amount removed by lavage (clinical; of the 10 mg ingested) [mg] | Risk of Arrhythmias ([3]; 1.4 nanograms per ml of blood serum) | Risk of Arrhythmias ([3]; 2 nanograms per ml of blood serum) | Risk of Arrhythmias ([3]; 2.9 nanograms per ml of blood serum) | Risk of Arrhythmias ([3]; 4 nanograms per ml of blood serum) | Risk of Arrhythmias ([3]; 5 nanograms per ml of blood serum) | average serum level (1 S.D.) [4] [ng/mL] | specificity of the immunoassay for digoxin over digitoxin (antibody) [fold] | average toxic level by immunoassay (antibody; toxic patients, serum digoxin) [ng/mL]
1 | C[C@@H]1O[C@@H](O[C@H]2C[C@@H](O)[C@]3(CO)[C@H]4[C@H](O)C[C@]5(C)[C@@H](C6=CC(=O)OC6)CC[C@]5(O)[C@@H]4CC[C@]3(O)C2)[C@H](O)[C@H](O)[C@H]1O [ouabain] | approximately equal potency | – | – | – | – | – | – | – | – | – | – | – | – | – | – | – | – | –
2 | C[C@H]1O[C@@H](O[C@H]2[C@@H](O)C[C@H](O[C@H]3[C@@H](O)C[C@H](O[C@H]4CC[C@@]5(C)[C@H](CC[C@@H]6[C@@H]5CC[C@]5(C)[C@@H](C7=CC(=O)OC7)CC[C@]65O)C4)O[C@@H]3C)O[C@@H]2C)C[C@H](O)[C@@H]1O [digitoxin] | approximately equal potency | 10 to 20 | 1.2 | 51 | 41 | 31.6 | 848 | 512 | 24.4 | 4.8 | – | – | – | – | – | – | – | –
3 | C[C@H]1O[C@@H](O[C@H]2[C@@H](O)C[C@H](O[C@H]3[C@@H](O)C[C@H](O[C@H]4CC[C@@]5(C)[C@H](CC[C@@H]6[C@@H]5C[C@@H](O)[C@]5(C)[C@@H](C7=CC(=O)OC7)CC[C@]65O)C4)O[C@@H]3C)O[C@@H]2C)C[C@H](O)[C@@H]1O [digoxin] | approximately equal potency | – | – | – | – | – | – | – | – | – | about 10% | about 25% | about 50% | about 66% | about 80% | 3.10 ± 0.76 | 10 | 3.3 ± 1.5
